From US5672715A, “Herbicidal substituted 3-aryl-pyrazoles” (Monsanto Company, priority 1995, dated 1997)
Read-outs that look alike come from different tables or passages of the source.

Tests used:
Format in all cases: in vivo
[1] = tested on: Rice; test: pre-emergence herbicide test; conditions: Oryza sativa, read-out: % plant inhibition
Outline: (§1)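 Herbicidal effect was assessed as percent inhibition about 14 days after sowing. A known amount of compound was added to the covering topsoil, and the pans were subirrigated in a greenhouse.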

[2] = tested on: Velvetleaf; test: pre-emergence herbicide test; conditions: Abutilon theophrasti, pre-emergence, read-out: % plant inhibition
Outline: as §1

[3] = tested on: Yellow Foxtail; test: pre-emergence herbicide test; conditions: Setaria, read-out: % plant inhibition
Outline: as §1

[4] = tested on: Barnyardgrass; test: post-emergence herbicide test; conditions: Echinochloa crus-galli, post-emergence, read-out: % plant inhibition
Outline: (§2)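 Sown pans kept on a greenhouse bench with irrigation or subirrigation until plants reached two to three weeks, then sprayed at 170.3 kPa (10 psig). Spray mix held about 0.4% by volume emulsifier; total volume 1870 L/Ha. Result expressed as percent inhibition.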

[5] = tested on: Bedstraw Catchweed; test: post-emergence herbicide test; conditions: Galium aparine, post-emergence, read-out: % plant inhibition
Outline: as §2

[6] = tested on: Blackgrass; test: post-emergence herbicide test; conditions: Alopecurus myosuroides, post-emergence, read-out: % plant inhibition; for inhibition at 7.95803 g/ha: 0.0071 lb/A; for inhibition at 40.0143 g/ha: 0.0357 lb/A; for inhibition at 200.072 g/ha: 0.1785 lb/A; for inhibition at 1000.92 g/ha: 0.893 lb/A
Outline: as §2

[7] = tested on: Cocklebur; test: post-emergence herbicide test; conditions: Xanthium strumarium, post-emergence, read-out: % plant inhibition
Outline: as §2

[8] = tested on: Common Chickweed; test: post-emergence herbicide test; conditions: post-emergence, read-out: % plant inhibition
Outline: as §2

[9] = tested on: Corn; test: post-emergence herbicide test; conditions: Zea mays, post-emergence, read-out: % plant inhibition
Outline: as §2

[10] = tested on: Morning Glory; test: post-emergence herbicide test; conditions: Ipomoea, post-emergence, read-out: % plant inhibition
Outline: as §2

[11] = tested on: Soybean; test: post-emergence herbicide test; conditions: Glycine max, post-emergence, read-out: % plant inhibition
Outline: as §2

[12] = tested on: Velvetleaf; test: post-emergence herbicide test; conditions: Abutilon theophrasti, post-emergence, read-out: % plant inhibition
Outline: as §2

[13] = tested on: Wheat; test: post-emergence herbicide test; conditions: Triticum aestivum, post-emergence, read-out: % plant inhibition
Outline: as §2

[14] = tested on: Yellow Foxtail; test: post-emergence herbicide test; conditions: Setaria, read-out: % plant inhibition
Outline: as §2

[15] = tested on: Yellow Nutsedge; test: post-emergence herbicide test; conditions: Cyperus, read-out: % plant inhibition
Outline: as §2

COc1cc(-c2nn(C)c(C(F)(F)F)c2C)c(F)cc1[N+](=O)[O-] [Compound 36]
30%: inhibition at 200.072 g/ha ([9]; 0.1785 lb/A)
75%: inhibition at 1000.92 g/ha ([5]; 0.893 lb/A) | inhibition at 7.95803 g/ha ([7]; 0.0071 lb/A) | inhibition at 200.072 g/ha ([12]; 0.1785 lb/A)
20%: inhibition at 7.95803 g/ha ([2]; 0.0071 lb/A) | inhibition at 40.0143 g/ha ([2]; 0.0357 lb/A) | inhibition at 7.95803 g/ha ([10]; 0.0071 lb/A) | inhibition at 200.072 g/ha ([13]; 0.1785 lb/A)
45%: inhibition at 200.072 g/ha ([4]; 0.1785 lb/A) | inhibition at 1000.92 g/ha ([11]; 0.893 lb/A) | inhibition at 200.072 g/ha ([14]; 0.1785 lb/A)
35%: inhibition at 200.072 g/ha ([8]; 0.1785 lb/A) | inhibition at 200.072 g/ha ([11]; 0.1785 lb/A)
98%: inhibition at 200.072 g/ha ([2]; 0.1785 lb/A) | inhibition at 200.072 g/ha ([3]; 0.1785 lb/A) | inhibition at 1000.92 g/ha ([7]; 0.893 lb/A)
60%: inhibition at 1000.92 g/ha ([6]; Table 5a) | inhibition at 200.072 g/ha ([7]; 0.1785 lb/A)
50%: inhibition at 1000.92 g/ha ([4]; 0.893 lb/A) | inhibition at 200.072 g/ha ([5]; 0.1785 lb/A)
70%: inhibition at 40.0143 g/ha ([12]; 0.0357 lb/A) | inhibition at 1000.92 g/ha ([14]; 0.893 lb/A)
5%: inhibition at 40.0143 g/ha ([13]; 0.0357 lb/A)
85%: inhibition at 7.95803 g/ha ([8]; 0.0071 lb/A) | inhibition at 200.072 g/ha ([10]; 0.1785 lb/A)
100%: inhibition at 1000.92 g/ha ([2]; 0.893 lb/A) | inhibition at 1000.92 g/ha ([3]; 0.893 lb/A) | inhibition at 1000.92 g/ha ([10]; 0.893 lb/A) | inhibition at 1000.92 g/ha ([12]; 0.893 lb/A)
25%: inhibition at 40.0143 g/ha ([5]; 0.0357 lb/A) | inhibition at 200.072 g/ha ([6]; Table 5a) | inhibition at 40.0143 g/ha ([9]; 0.0357 lb/A) | inhibition at 40.0143 g/ha ([11]; 0.0357 lb/A) | inhibition at 1000.92 g/ha ([13]; 0.893 lb/A) | inhibition at 1000.92 g/ha ([15]; 0.893 lb/A)
10%: inhibition at 40.0143 g/ha ([6]; Table 5a) | inhibition at 7.95803 g/ha ([13]; 0.0071 lb/A) | inhibition at 40.0143 g/ha ([14]; 0.0357 lb/A)
0%: inhibition at 7.95803 g/ha ([1]; 0.0071 lb/A) | inhibition at 40.0143 g/ha ([1]; 0.0357 lb/A) | inhibition at 200.072 g/ha ([1]; 0.1785 lb/A) | inhibition at 7.95803 g/ha ([3]; 0.0071 lb/A) | inhibition at 7.95803 g/ha ([4]; 0.0071 lb/A) | inhibition at 40.0143 g/ha ([4]; 0.0357 lb/A) | inhibition at 7.95803 g/ha ([5]; 0.0071 lb/A) | inhibition at 7.95803 g/ha ([6]; Table 4a) | inhibition at 7.95803 g/ha ([6]; Table 5a) | inhibition at 40.0143 g/ha ([6]; Table 4a) | inhibition at 200.072 g/ha ([6]; Table 4a) | inhibition at 1000.92 g/ha ([6]; Table 4a) | inhibition at 40.0143 g/ha ([7]; 0.0357 lb/A) | inhibition at 7.95803 g/ha ([9]; 0.0071 lb/A) | inhibition at 7.95803 g/ha ([14]; 0.0071 lb/A) | inhibition at 7.95803 g/ha ([15]; 0.0071 lb/A) | inhibition at 40.0143 g/ha ([15]; 0.0357 lb/A) | inhibition at 200.072 g/ha ([15]; 0.1785 lb/A)
65%: inhibition at 1000.92 g/ha ([1]; 0.893 lb/A) | inhibition at 1000.92 g/ha ([8]; 0.893 lb/A) | inhibition at 7.95803 g/ha ([12]; 0.0071 lb/A)
15%: inhibition at 40.0143 g/ha ([3]; 0.0357 lb/A) | inhibition at 40.0143 g/ha ([8]; 0.0357 lb/A) | inhibition at 7.95803 g/ha ([11]; 0.0071 lb/A)
40%: inhibition at 1000.92 g/ha ([9]; 0.893 lb/A) | inhibition at 40.0143 g/ha ([10]; 0.0357 lb/A)
